Assay [1] has as its target Proto-oncogene tyrosine-protein kinase Src (Homo sapiens, UniProt P12931). The experiment in a line: Inhibition of binding to Src SH2 domain.
The species named for another assay is Oryctolagus cuniculus. The assay is described as follows: Ability to inhibit osteoclast mediated resorption of dentine in rabbit. Type of assay: functional.

Experimental findings from ChEMBL document CHEMBL1134353, “X-Ray structure of citrate bound to Src SH2 leads to a high-affinity, bone-targeted Src SH2 inhibitor” (J Med Chem, 2001) are described below.

The structures appear in SMILES notation.

Sequence of Proto-oncogene tyrosine-protein kinase Src (P12931 2-536 limits assumed): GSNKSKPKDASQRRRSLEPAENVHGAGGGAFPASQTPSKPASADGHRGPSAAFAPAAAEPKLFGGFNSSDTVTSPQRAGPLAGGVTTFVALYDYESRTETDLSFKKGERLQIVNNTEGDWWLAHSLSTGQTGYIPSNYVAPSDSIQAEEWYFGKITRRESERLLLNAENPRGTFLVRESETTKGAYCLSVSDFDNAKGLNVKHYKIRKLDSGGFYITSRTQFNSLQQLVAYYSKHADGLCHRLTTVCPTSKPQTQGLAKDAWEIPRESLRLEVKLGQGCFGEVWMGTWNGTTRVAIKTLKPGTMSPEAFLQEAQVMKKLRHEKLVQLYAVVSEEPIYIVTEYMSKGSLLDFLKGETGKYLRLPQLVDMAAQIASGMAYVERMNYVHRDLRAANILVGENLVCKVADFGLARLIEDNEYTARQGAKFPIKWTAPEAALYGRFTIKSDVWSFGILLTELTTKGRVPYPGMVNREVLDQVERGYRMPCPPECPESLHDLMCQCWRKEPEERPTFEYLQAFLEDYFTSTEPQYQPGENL

Broadly, the IC50 is the midpoint of a concentration-inhibition curve. The low end stands for greater potency, the high end for weaker potency. Take `CC(=O)N[C@@H](Cc1ccc(C(P(=O)(O)O)P(=O)(O)O)cc1)C(=O)N[C@@H](C)c1ccc(OCC2CCCCC2)c(C(N)=O)c1`: the IC50 was 350 nM in assay [1] and 2000 nM in the assay filed under Oryctolagus cuniculus. `CC(=O)N[C@@H](Cc1ccc(CP(=O)(O)O)cc1)C(=O)N[C@@H](C)c1ccc(OCC2CCCCC2)c(C(N)=O)c1` registered a half-maximal inhibitory concentration (IC50) in assay [1] of 7900 nM.
